Holding throughout (type): cell-based
Assay [1] deals with ENL-dependent MV4; 11 cells. Kind of assay: Cell viability (CellTiter-Glo), MV4; 11 cells. The protocol:
(§1) MV4; 11 (FIG. 13A), MOLM13 (FIG. 13B) and Jurkat (FIG. 13C) cells were seeded at 2×10^5 cells/mL density and treated with DMSO or indicated compounds 0.5, 1, 2 and 4 μM for 72 h. Cell viability was measured using CellTiter-Glo reagent (Promega) and relative cell viability was calculated by normalization to DMSO samples.
ENL-dependent MV4; 11 cells were seeded at 2×10^5 cells/mL density and treated with DMSO or the indicated compounds at 0, 1.25, 2.5, 5 and 10 μM for 72 h. Cell viability was measured using CellTiter-Glo reagent (Promega) and relative cell viability was calculated by normalization to DMSO samples.
(§2) ENL-dependent MV4; 11 and ENL-independent Jurkat cells were seeded at 2×10^5 cells/mL density and treated with DMSO or indicated compounds at 10 nM, 100 nM, 1 μM and 10 μM for 3 days (A) or 6 days (B). Cell viability was measured using CellTiter-Glo reagent (Promega) and relative cell viability was calculated by normalization to DMSO samples.
(§3) MV4; 11 or MOLM13 cells were seeded at 0.2×10^6 cells/mL density. Cells were treated with DMSO or ENL degraders at indicated concentrations. Each treatment was done in triplicates. After 72 h treatment, 100 μL of cell suspension from each treatment was mixed with 25 μL of CellTiter-Glo reagent (Promega) and incubated for 10 min before the luminescence signals were detected on a plate reader.
Background: Cellular ATP, detected with luciferase, serves as a proxy for viable cell number.

Assay [2] addresses T1, ENL (Homo sapiens, UniProt Q03111).
T1 construct: Cells were lysed and expression of endogenous ENL was assessed by Western blot analysis; host or cells: MV4;11
T1 sequence (Q03111 1-559): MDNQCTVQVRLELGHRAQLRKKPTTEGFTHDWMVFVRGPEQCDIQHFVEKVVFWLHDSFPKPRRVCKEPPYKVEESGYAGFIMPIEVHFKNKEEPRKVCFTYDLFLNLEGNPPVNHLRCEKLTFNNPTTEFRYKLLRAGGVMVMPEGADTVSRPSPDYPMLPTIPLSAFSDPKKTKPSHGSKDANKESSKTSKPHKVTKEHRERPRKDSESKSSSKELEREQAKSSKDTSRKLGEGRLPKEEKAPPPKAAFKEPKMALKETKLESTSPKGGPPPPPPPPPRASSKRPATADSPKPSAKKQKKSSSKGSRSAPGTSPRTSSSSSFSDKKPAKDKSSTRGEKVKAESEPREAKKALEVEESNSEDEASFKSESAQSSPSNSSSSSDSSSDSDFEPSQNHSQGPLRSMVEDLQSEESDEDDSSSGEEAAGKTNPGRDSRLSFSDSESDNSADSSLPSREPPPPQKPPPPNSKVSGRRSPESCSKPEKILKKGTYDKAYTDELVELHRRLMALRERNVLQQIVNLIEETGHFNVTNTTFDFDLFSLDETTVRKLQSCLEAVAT
Kind of assay: Western blot of ENL protein levels in MV4; 11 cells. As to conditions: 11 cells; for ENL protein level after long treatment: 1 μM for 48 and 72 h; for effect of proteasome inhibitor MG132 on the ENL degradation induced by the degrader: 1 μM degrader with or without 1 μM MG132 for 6 h. Here is the method:
MV4; 11 cells were treated with DMSO or the indicated compounds (the same panel of ENL degraders as shown in FIG. 4) at 1 μM and 10 μM for 24 h. Cells were lysed and expression of ENL was assessed by Western blot analysis.
DMSO treated cells were used as control.
MV4; 11 cells were treated with LQ076-122, or LQ081-107 at 0.3, 1, 3, 10, and 30 μM for 24 h. DMSO treated cells were used as control. Cells were lysed and expression of ENL and GAS41 was assessed by Western analysis.
MV4; 11 cells were treated with DMSO or the indicated compounds at 1 μM and 10 μM for 6 h. Cells were lysed and expression of endogenous ENL was assessed by Western blot analysis.
Cells were treated with 1 μM of ENL degrader with or without 1 μM proteasome inhibitor MG132 for 6 h.
(§4) ENL degraders were dissolved in DMSO. DMSO with no degraders was used as the control. 1×10^6 leukemia cells were seeded in 5 mL medium. For prescreening of compounds, each test compound was added to the medium at 1 μM and 10 μM. Cells were collected after 24 h treatment. For the concentration-dependent treatment, candidate compounds were added to the medium at a series of concentration as indicated in figures. Cells were collected after 24 h treatment. For the time-course treatment, candidate compounds were added to the medium at a final concentration of 4 μM (MV4; 11 cells) or 8 μM (MOLM13 cells). Cells were collected at the indicated timepoints (in hours: 12, 16, 20, 24 and 36 h).
(§5) After ENL degrader treatment, cells were collected, lysed, and total cell lysates were used for Western blot. The following primary antibodies were used: ENL (Cell Signaling Technology), GAS41 (Santa Cruz), GAPDH (Santa Cruz), β-actin (Sigma). Blots were detected using HRP-conjugated secondary antibodies.
In general terms: A western blot detects proteins with antibodies after separation by electrophoresis.

In assay [3] the test system is ENL-dependent MOLM13 leukemia cells. Nature of the assay: Cell viability (CellTiter-Glo), MOLM13 cells. As to conditions: MOLM13 cells, 0.5, 1, 2 and 4 μM for 72 h. Here is the method:
as §1, §3

Assay [4] deals with ENL-independent Jurkat cells. Kind of assay: Cell viability (CellTiter-Glo), Jurkat cells. Here is the method: as §1, §2
Assay [5] has as its target T1, ENL. Kind of assay: Western blot of ENL protein levels in Jurkat cells. As to conditions: for reduction of ENL protein levels: 1 nM to 10 μM for 6 h; for ENL protein level after long treatment: 1 μM for 48 and 72 h.
Excerpt: […] DMSO was used as negative control.
as §5

The target of assay [6] is T1, ENL. Kind of assay: Western blot of ENL protein levels in MOLM13 cells. To be noted: for reduction of ENL protein levels: 1 nM to 10 μM for 6 h; for ENL protein level after long treatment: 1 μM for 48 and 72 h. The protocol: MOLM13 cells were treated with LQ076-122 or LQ081-108 at 0, 0.25, 0.5, 1, 1.5, 2, 2.5, 3, 4 and 8 μM for 24 h.
MOLM13 cells were treated with DMSO or 8 μM of LQ076-122 for 12, 16, 20, 24 and 36 h.
MV4; 11, MOLM13 and Jurkat cells were treated with LQ108-69, LQ108-71, LQ108-72, LQ126-62 and LQ126-63 at 0, 1 nM, 10 nM, 100 nM, 1 μM, and 10 μM doses for 6 h. DMSO was used as negative control.
as §4, §5

Where [7] appears, read: 11 cells, 0.5, 1, 2 and 4 μM for 72 h.
Setting [8] is: 11 cells, 1.25, 2.5, 5 and 10 μM for 72 h.

From US20230391765A1, “HETEROBIFUNCTIONAL COMPOUNDS AS DEGRADERS OF ENL” (ICAHN SCHOOL OF MEDICINE AT MOUNT SINAI, priority 2020, published 2023) come the findings set out here.

Regarding `Cc1ncsc1-c1ccc([C@H](C)NC(=O)[C@@H]2C[C@@H](O)CN2C(=O)[C@@H](NC(=O)CCCCCCCCCCCNC(=O)c2ccc(C(=O)Nc3ccc4[nH]c(CN5CCC[C@@H]5C)nc4c3)cc2)C(C)(C)C)cc1` [LQ081-109, N^1-(12-(((S)-1-((2S,4R)-4-hydroxy-2-(((S)-1-(4-(4-methylthiazol-5-yl)phenyl)ethyl)carbamoyl)pyrrolidin-1-yl)-3,3-dimethyl-1-oxobutan-2-yl)amino)-12-oxododecyl)-N^4-(2-(((S)-2-methylpyrrolidin-1-yl)methyl)-1H-benzo[d]imidazol-5-yl)terephthalamide], the “suppression of cell growth (relative cell viability)” value in assay [1] (setting [7]) and in assay [3] was “selectively suppressed cell growth” each time. Moreover, the “reduction of ENL protein levels” value in assay [2] (0-8 μM for 24 h) is recorded as “reduced ENL protein levels in a concentration-dependent manner”; in assay [2] (10 μM, 24 h) it was “effective in reducing ENL protein levels”.

As for `Cc1ncsc1-c1ccc([C@H](C)NC(=O)[C@H]2C[C@H](O)CN2C(=O)[C@@H](NC(=O)CCCCCCCCCCCNC(=O)c2ccc(C(=O)Nc3ccc4[nH]c(CN5CCC[C@@H]5C)nc4c3)cc2)C(C)(C)C)cc1` [LQ081-158], the “suppression of cell growth (relative cell viability)” value is reported as “did not significantly affect cell growth” in assay [4] (Jurkat cells, 0.5, 1, 2 and 4 μM for 72 h); “did not significantly affect cell growth” in assay [1] (setting [7]); “did not significantly affect cell growth” in assay [3].

Consider `Cc1ncsc1-c1ccc([C@H](CC(=O)NCCCCCCCCCNC(=O)c2ccc3c(c2)[C@H](NC(=O)c2cc(-c4ccc(C(=O)N(C)C)c(O)c4)on2)CC3)NC(=O)[C@@H]2C[C@@H](O)CN2C(=O)[C@@H](NC(=O)C2(F)CC2)C(C)(C)C)cc1` [LQ108-72, 5-(4-(dimethylcarbamoyl)-3-hydroxyphenyl)-N—((R)-6-((9-((S)-3-((2S,4R)-1-((S)-2-(1-fluorocyclopropane-1-carboxamido)-3,3-dimethylbutanoyl)-4-hydroxypyrrolidine-2-carboxamido)-3-(4-(4-methylthiazol-5-yl)phenyl)propanamido)nonyl)carbamoyl)-2,3-dihydro-1H-inden-1-yl)isoxazole-3-carboxamide], for which the “suppression of cell growth (relative cell viability)” value in assay [1] (setting [8]) is reported as “significantly suppressed MV4; 11 cell growth at low micromolar concentration”. The “reduction of ENL protein levels” value in assay [2] (1 nM to 10 μM for 6 h), in assay [5] and in assay [6] was “reduced ENL protein levels in a concentration-dependent manner” throughout. For the same molecule, the “ENL protein level after long treatment” value in assay [2], in assay [5] and in assay [6] was “maintained the ENL protein at low levels” each time.

In the case of `Cc1ncsc1-c1ccc(CNC(=O)[C@@H]2C[C@@H](O)CN2C(=O)[C@@H](NC(=O)CCCCCCCCCNC(=O)c2ccc3c(c2)[C@H](NC(=O)c2cc(-c4ccc(C(=O)N(C)C)c(O)c4)on2)CC3)C(C)(C)C)cc1` [LQ126-62, 5-(4-(dimethylcarbamoyl)-3-hydroxyphenyl)-N—((R)-6-((10-(((S)-1-((2S,4R)-4-hydroxy-2-((4-(4-methylthiazol-5-yl)benzyl)carbamoyl)pyrrolidin-1-yl)-3,3-dimethyl-1-oxobutan-2-yl)amino)-10-oxodecyl)carbamoyl)-2,3-dihydro-1H-inden-1-yl)isoxazole-3-carboxamide], the “suppression of cell growth (relative cell viability)” value in assay [1] (setting [8]) is “significantly suppressed MV4; 11 cell growth at low micromolar concentration”. Moreover, the “reduction of ENL protein levels” value in assay [2] (1 nM to 10 μM for 6 h), in assay [5] and in assay [6] was “reduced ENL protein levels in a concentration-dependent manner” each time. The “effect of proteasome inhibitor MG132 on the ENL degradation induced by the degrader” value in assay [2] is on record as “partially blocks the ENL degradation”. Moreover, the “ENL protein level after long treatment” value in assay [2], in assay [5] and in assay [6] was “maintained the ENL protein at low levels” throughout.

Take `Cc1ncsc1-c1ccc(CNC(=O)[C@@H]2C[C@@H](O)CN2C(=O)[C@@H](NC(=O)CCCCCCCCCCNC(=O)c2ccc3c(c2)[C@H](NC(=O)c2cc(-c4ccc(C(=O)N(C)C)c(O)c4)on2)CC3)C(C)(C)C)cc1` [LQ126-63, 5-(4-(dimethylcarbamoyl)-3-hydroxyphenyl)-N—((R)-6-((11-(((S)-1-((2S,4R)-4-hydroxy-2-((4-(4-methylthiazol-5-yl)benzyl)carbamoyl)pyrrolidin-1-yl)-3,3-dimethyl-1-oxobutan-2-yl)amino)-11-oxoundecyl)carbamoyl)-2,3-dihydro-1H-inden-1-yl)isoxazole-3-carboxamide]: the “suppression of cell growth (relative cell viability)” value in assay [4] (Jurkat cells, 10 nM to 10 μM, 3 days and 6 days) is “did not affect the growth of ENL-independent Jurkat cells”; in assay [1] (11 cells, 100 nM dose, 3 days and 6 days), “strongly suppressed MV4; 11 cell growth”; in assay [1] (setting [8]), “significantly suppressed MV4; 11 cell growth at low micromolar concentration”. Moreover, the “reduction of ENL protein levels” value in assay [2] (1 nM to 10 μM for 6 h), in assay [5] and in assay [6] was “reduced ENL protein levels in a concentration-dependent manner” in each case. For the same molecule, in assay [2], the “effect of proteasome inhibitor MG132 on the ENL degradation induced by the degrader” value was “partially blocks the ENL degradation”. In addition, the “ENL protein level after long treatment” value in assay [2], in assay [5] and in assay [6] was “maintained the ENL protein at low levels” each time.
